pIC50: −log10 of the molar value.
Legend:
MCF7 = assay: Cell proliferation detection using BrdU method (MCF7); type: cell-based; conditions: Homo sapiens, 48 hours, fixed-ratio combination 640:3.2 nM series, concentration axis = compound of Formula (I), read-out: Cytological activity on MCF7 in vitro (IC50)
Procedure: Experimental method: Cell proliferation detection using BrdU method (BrdU cell proliferation test kit, PerkinElmer Company) • 1. Reagent and compound preparation • 1.1. Preparation of 1-fold washing solution:
A washing solution with a mother liquor concentration of 25 times was diluted into 1-fold washing solution with ultrapure water. • 1.2. Preparation of 1-fold detection antibody solution:
A BrdU-Eu detection antibody with a mother liquor concentration of 200 times was diluted into 1-fold detection antibody solution with a detection antibody diluent. • 1.3. 100-fold BrdU labeling solution:
A BrdU stock solution with a mother liquor concentration of 1000 times was diluted into 100-fold BrdU labeling solution with a culture medium corresponding to cells. • 1.4. […]
MCF7 medium: MEM+10% FBS+1% bispecific antibody+10 μg/mL human recombinant insulin • 2. […] Then resuspended with a corresponding culture medium, counted and adjustment-inoculated in a 96-well plate, the MCF7 cells were inoculated according to 8000 cells/well/100 μL, placed and cultured in a 37° C. cell incubator, and after the cells were adhered to a wall, it was replaced with a serum-free medium. • 2.2. […]
• 2.3. […] 200 μL of time-resolved immunofluorescence induction solution was added per well, and incubated at the room temperature for 15 minutes, and the fluorescence value (Flu value) was detected by a microplate reader. • 3.

[1] = system: MCF7 human xenograft model; assay: Tumor growth inhibition in MCF7 human xenograft model; type: in vivo, Balb/c female nude mouse; conditions: Formula (I) 30 mg/kg orally once a day 21 days, fulvestrant 5 mg/mouse subcutaneously once a week 3 weeks
Procedure: 1. Tumor Inoculating and Grouping
Estrogen was injected subcutaneously on one day before animal inoculation, twice a week, and 40 μg/20 μL for each time (estrogen specification: 4 mg/2 mL) until the experiment was ended. MCF7 cells resuspended by a serum-free medium were inoculated subcutaneously on the right rib of a Balb/c female nude mouse at 1.5×10^7+matrigel/0.2 mL (cell: matrigel=1:1). While the tumor growed to a volume mean value of 163 mm^3, it was grouped and administered. The group of the compound of Formula (I) was administered orally once a day at an dose of 30 mg/kg for 21 consecutive days; the group of the fulvestrant was administered subcutaneously once a week, 5 mg per animal, for 3 consecutive weeks; and while the compound of Formula (I) was used in combination with the fulvestrant, the same administration mode was used as while used alone.
2. Measurement and Experimental Indicator of Tumor
The tumor volume was measured twice a week with a vernier caliper, the long diameter and the short diameter of the tumor were measured, and its volume calculation formula is: volume=0.5×long diameter×short diameter^2. The relative tumor volume RTV and relative tumor volume increase ratio (T/C) were calculated according to measurement results. […]

## C[C@]12CC[C@@H]3c4ccc(O)cc4C[C@@H](CCCCCCCCC[S+]([O-])CCCC(F)(F)C(F)(F)F)[C@H]3[C@@H]1CC[C@@H]2O (stereo partly drawn) [Fulvestrant, fulvestrant]
MCF7
  pIC50: 9.66
[1]; combination same modes
  TGI(%): 55.9%
[1]; mean ± standard error, start about 163 mm^3, solvent control 468 ± 37
  Tumor volume at the end of administration: 216 ± 44 mm^3

Reference: patent US20240075032A1, “A Pharmaceutical Composition for Treating Cancer” (XUANZHU BIOPHARMACEUTICAL CO., LTD., priority 2020, published 2024)
